Measured values from ChEMBL document CHEMBL5647694, “Novel orally bioavailable EZH1/2 dual inhibitors with greater antitumor efficacy than an EZH2 selective inhibitor” (Cancer Sci, 2017).

Assays:
[1] = Cmax in Crl:CD Sprague-Dawley rat at 100 mg/kg, po by LC/MS/MS analysis; type: ADME, organism-based; details: in vivo
[2] = Toxicity in Crl:CD Sprague-Dawley rat assessed as MCHC level in blood at 100 mg/kg, po administered daily for 14 days (reference value: 32.7 +/-0.05%); type: organism-based; details: in vivo, 336 h, time 14 day
[3] = Toxicity in Crl:CD Sprague-Dawley rat assessed as decrease in body weight at 100 mg/kg, po administered daily for 14 days; type: organism-based; details: in vivo, 336 h, time 14 day
[4] = Toxicity in Crl:CD Sprague-Dawley rat assessed as atrophy of hepatocytes in liver at 100 mg/kg, po administered daily for 14 days by hematoxylin and eosin staining based analysis; type: organism-based; details: in vivo, 336 h, time 14 day
[5] = Cmax in BALB/c mouse at 6.3 mg/kg administered as single dose; type: ADME, organism-based; details: in vivo, route po
P3HR-1 = experiment: Antitumor activity against human P3HR-1 cells assessed as cell growth inhibition treated for 10 to 15 days; type: functional; details: time 10-15 day
NCI-H929 = experiment: Antitumor activity against human NCI-H929 cells assessed as cell growth inhibition treated for 10 to 15 days; type: functional; details: time 10-15 day
Hs-578T = experiment: Antitumor activity against human Hs-578T cells assessed as cell growth inhibition treated for 10 to 15 days; type: functional; details: time 10-15 day
TOV21G = experiment: Antitumor activity against human TOV-21G cells assessed as cell growth inhibition treated for 10 to 15 days; type: functional; details: time 10-15 day
U-937 = experiment: Antitumor activity against human U-937 cells assessed as cell growth inhibition treated for 10 to 15 days; type: functional; details: time 10-15 day
[6] = Antitumor activity against human PCM6 cells assessed as cell growth inhibition treated for 10 to 15 days; type: functional; details: time 10-15 day
JeKo-1 = experiment: Antitumor activity against human JeKo-1 cells assessed as cell growth inhibition treated for 10 to 15 days; type: functional; details: time 10-15 day
MDA-MB-453 = experiment: Antitumor activity against human MDA-MB-453 cells assessed as cell growth inhibition treated for 10 to 15 days; type: functional; details: time 10-15 day
PRMT5/MEP50 complex = PRMT5/MEP50 complex (Homo sapiens, UniProt O14744+Q9BQA1); experiment: Inhibition of human PRMT5/MEP50 using Histone H2A and [3H]SAM as substrate incubated for 30 mins to 1 hr by HotSpot kinase assay; type: protein-complex assay
THP-1 = experiment: Antitumor activity against human THP-1 cells assessed as cell growth inhibition treated for 10 to 15 days; type: functional; details: time 10-15 day
KURAMOCHI = experiment: Antitumor activity against human KURAMOCHI cells assessed as cell growth inhibition treated for 10 to 15 days; type: functional; details: time 10-15 day
RL = experiment: Antitumor activity against human RL cells assessed as cell growth inhibition treated for 10 to 15 days; type: functional; details: time 10-15 day
[7] = biological target: Histone-lysine N-methyltransferase EHMT1 (Homo sapiens, UniProt Q9H9B1); experiment: Inhibition of human GLP using Histone H3 (1-21 residues) and [3H]SAM as substrate incubated for 30 mins to 1 hr by HotSpot kinase assay
[8] = Antitumor activity against human NCI-H841 cells assessed as cell growth inhibition treated for 10 to 15 days; type: functional; details: time 10-15 day
[9] = biological target: DNA (cytosine-5)-methyltransferase 1 (Homo sapiens, UniProt P26358); experiment: Inhibition of human DNMT1 using Poly (dl-dC) and [3H]SAM as substrate incubated for 30 mins to 1 hr by HotSpot kinase assay
[10] = biological target: Protein arginine N-methyltransferase 6 (Homo sapiens, UniProt Q96LA8); experiment: Inhibition of human PRMT6 using Histone H3 and [3H]SAM as substrate incubated for 30 mins to 1 hr by HotSpot kinase assay
[11] = biological target: Angiopoietin-1 receptor (Homo sapiens) (UniProt Q02763); experiment: Inhibition of N-terminal GST-tagged human TIE2 cytoplasmic domain (771 to 1124 residues) expressed in baculovirus-infected Sf21 cells using Blk/Lyntide as substrate at 1 uM in presence of ATP by Mobility shift assay
[12] = biological target: Histone-lysine N-methyltransferase 2D (Homo sapiens, UniProt O14686); experiment: Inhibition of human MLL2 using Core Histone and [3H]SAM as substrate incubated for 30 mins to 1 hr by HotSpot kinase assay
[13] = Antitumor activity against human MDA-PCa-2b cells assessed as cell growth inhibition treated for 10 to 15 days; type: functional; details: time 10-15 day
G-401 = experiment: Antitumor activity against human G-401 cells assessed as cell growth inhibition treated for 10 to 15 days; type: functional; details: time 10-15 day
[14] = biological target: Histone-lysine N-methyltransferase PRDM9 (Homo sapiens, UniProt Q9NQV7); experiment: Inhibition of human PRDM9 using Histone H3 and [3H]SAM as substrate incubated for 30 mins to 1 hr by HotSpot kinase assay
ZR-75-1 = experiment: Antitumor activity against human ZR-75-1 cells assessed as cell growth inhibition treated for 10 to 15 days; type: functional; details: time 10-15 day
[15] = biological target: MAP kinase-activated protein kinase 2 (Homo sapiens) (UniProt P49137); experiment: Inhibition of N-terminal GST-fused full length human MAPKAPK2 (1 to 400 residues) expressed in baculovirus expression system using GS peptide as substrate at 1 uM in presence of ATP by Mobility shift assay
JM1 = experiment: Antitumor activity against human JM1 cells assessed as cell growth inhibition treated for 10 to 15 days; type: functional; details: time 10-15 day
[16] = Antitumor activity against human NCI-H660 cells assessed as cell growth inhibition treated for 10 to 15 days; type: functional; details: time 10-15 day
BT-549 = experiment: Antitumor activity against human BT-549 cells assessed as cell growth inhibition treated for 10 to 15 days; type: functional; details: time 10-15 day
OV-90 = experiment: Antitumor activity against human OV-90 cells assessed as cell growth inhibition treated for 10 to 15 days; type: functional; details: time 10-15 day
NCI-H661 = experiment: Antitumor activity against human NCI-H661 cells assessed as cell growth inhibition treated for 10 to 15 days; type: functional; details: time 10-15 day
[17] = Antitumor activity against human BCP-1 cells assessed as cell growth inhibition treated for 10 to 15 days; type: functional; details: time 10-15 day
OCI-Ly7 = experiment: Antitumor activity against human OCILY7 cells assessed as cell growth inhibition treated for 10 to 15 days; type: functional; details: time 10-15 day
[18] = biological target: N-lysine methyltransferase KMT5A (Homo sapiens, UniProt Q9NQR1); experiment: Inhibition of human SET8 using Nucleosomes and [3H]SAM as substrate incubated for 30 mins to 1 hr by HotSpot kinase assay
MX1 = experiment: Antitumor activity against human MX1 cells assessed as cell growth inhibition treated for 10 to 15 days; type: functional; details: time 10-15 day
[19] = biological target: Histone-lysine N-methyltransferase NSD2 (Homo sapiens, UniProt O96028); experiment: Inhibition of human NSD2 using Nucleosomes and [3H]SAM as substrate incubated for 30 mins to 1 hr by HotSpot kinase assay
MDA-MB-468 = experiment: Antitumor activity against human MDA-MB-468 cells assessed as cell growth inhibition treated for 10 to 15 days; type: functional; details: time 10-15 day
[20] = biological target: DNA (cytosine-5)-methyltransferase 3B (Homo sapiens, UniProt Q9UBC3); experiment: Inhibition of human DNMT3b using lambda DNA and [3H]SAM as substrate incubated for 30 mins to 1 hr by HotSpot kinase assay

Sequence of MAP kinase-activated protein kinase 2 (Homo sapiens) (P49137 whole entry, looked up, the tested form may be a part): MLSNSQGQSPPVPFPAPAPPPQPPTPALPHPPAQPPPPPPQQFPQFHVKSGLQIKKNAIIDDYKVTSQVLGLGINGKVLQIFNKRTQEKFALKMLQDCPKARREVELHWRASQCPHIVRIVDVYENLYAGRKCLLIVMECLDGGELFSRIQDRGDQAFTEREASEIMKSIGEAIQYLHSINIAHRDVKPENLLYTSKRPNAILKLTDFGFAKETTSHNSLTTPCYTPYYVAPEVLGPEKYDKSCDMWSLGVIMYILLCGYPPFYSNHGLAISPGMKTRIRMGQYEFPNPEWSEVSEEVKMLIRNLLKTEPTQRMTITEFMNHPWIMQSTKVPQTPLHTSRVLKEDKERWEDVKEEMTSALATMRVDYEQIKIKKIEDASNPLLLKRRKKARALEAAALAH
Sequence of Histone-lysine N-methyltransferase EHMT1 (Q9H9B1 whole entry, the tested form may be a part): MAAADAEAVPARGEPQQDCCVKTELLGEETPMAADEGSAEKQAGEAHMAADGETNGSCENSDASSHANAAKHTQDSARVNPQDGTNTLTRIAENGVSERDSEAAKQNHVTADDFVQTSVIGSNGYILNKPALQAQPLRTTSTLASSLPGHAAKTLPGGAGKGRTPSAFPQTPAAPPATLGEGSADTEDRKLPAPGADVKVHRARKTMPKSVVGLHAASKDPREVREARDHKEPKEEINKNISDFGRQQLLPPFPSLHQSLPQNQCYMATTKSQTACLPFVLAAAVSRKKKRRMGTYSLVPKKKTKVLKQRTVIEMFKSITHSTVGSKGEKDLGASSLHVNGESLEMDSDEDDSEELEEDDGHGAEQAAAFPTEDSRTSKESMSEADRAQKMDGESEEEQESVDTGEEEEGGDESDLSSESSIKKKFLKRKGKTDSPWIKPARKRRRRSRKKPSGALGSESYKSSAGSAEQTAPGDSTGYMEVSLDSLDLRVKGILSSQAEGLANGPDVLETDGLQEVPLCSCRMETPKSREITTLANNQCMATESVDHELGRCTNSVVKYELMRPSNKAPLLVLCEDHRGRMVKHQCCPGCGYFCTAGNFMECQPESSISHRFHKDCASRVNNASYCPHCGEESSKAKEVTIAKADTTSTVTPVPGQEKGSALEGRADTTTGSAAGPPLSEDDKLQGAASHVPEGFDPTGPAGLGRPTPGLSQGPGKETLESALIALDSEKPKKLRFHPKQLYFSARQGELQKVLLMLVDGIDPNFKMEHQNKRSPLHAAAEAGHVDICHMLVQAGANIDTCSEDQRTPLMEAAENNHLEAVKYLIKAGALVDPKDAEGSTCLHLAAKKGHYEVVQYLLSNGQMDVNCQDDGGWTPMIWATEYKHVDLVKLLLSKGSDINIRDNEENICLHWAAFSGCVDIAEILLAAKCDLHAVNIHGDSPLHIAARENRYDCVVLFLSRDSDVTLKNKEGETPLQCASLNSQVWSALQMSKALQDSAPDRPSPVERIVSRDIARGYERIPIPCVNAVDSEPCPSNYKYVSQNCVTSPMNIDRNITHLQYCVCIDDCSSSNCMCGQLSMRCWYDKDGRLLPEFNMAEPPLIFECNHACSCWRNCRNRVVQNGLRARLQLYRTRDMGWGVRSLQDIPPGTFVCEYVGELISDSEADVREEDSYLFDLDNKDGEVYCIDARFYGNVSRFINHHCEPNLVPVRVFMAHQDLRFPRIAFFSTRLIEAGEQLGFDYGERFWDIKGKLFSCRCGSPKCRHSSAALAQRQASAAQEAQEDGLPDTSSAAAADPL
Sequence of N-lysine methyltransferase KMT5A (Q9NQR1 whole entry): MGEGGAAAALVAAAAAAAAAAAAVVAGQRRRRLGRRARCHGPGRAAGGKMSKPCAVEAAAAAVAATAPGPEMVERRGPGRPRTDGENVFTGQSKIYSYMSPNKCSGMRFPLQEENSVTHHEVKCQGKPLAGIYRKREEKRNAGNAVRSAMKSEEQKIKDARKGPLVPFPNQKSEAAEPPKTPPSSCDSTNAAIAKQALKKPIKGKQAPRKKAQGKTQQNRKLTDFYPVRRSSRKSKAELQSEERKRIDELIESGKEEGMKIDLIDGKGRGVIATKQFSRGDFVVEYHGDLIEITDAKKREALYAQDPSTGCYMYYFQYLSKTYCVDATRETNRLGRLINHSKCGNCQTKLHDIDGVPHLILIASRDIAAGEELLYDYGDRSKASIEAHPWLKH
Sequence of Angiopoietin-1 receptor (Homo sapiens) (Q02763 whole entry, the tested form may be a part): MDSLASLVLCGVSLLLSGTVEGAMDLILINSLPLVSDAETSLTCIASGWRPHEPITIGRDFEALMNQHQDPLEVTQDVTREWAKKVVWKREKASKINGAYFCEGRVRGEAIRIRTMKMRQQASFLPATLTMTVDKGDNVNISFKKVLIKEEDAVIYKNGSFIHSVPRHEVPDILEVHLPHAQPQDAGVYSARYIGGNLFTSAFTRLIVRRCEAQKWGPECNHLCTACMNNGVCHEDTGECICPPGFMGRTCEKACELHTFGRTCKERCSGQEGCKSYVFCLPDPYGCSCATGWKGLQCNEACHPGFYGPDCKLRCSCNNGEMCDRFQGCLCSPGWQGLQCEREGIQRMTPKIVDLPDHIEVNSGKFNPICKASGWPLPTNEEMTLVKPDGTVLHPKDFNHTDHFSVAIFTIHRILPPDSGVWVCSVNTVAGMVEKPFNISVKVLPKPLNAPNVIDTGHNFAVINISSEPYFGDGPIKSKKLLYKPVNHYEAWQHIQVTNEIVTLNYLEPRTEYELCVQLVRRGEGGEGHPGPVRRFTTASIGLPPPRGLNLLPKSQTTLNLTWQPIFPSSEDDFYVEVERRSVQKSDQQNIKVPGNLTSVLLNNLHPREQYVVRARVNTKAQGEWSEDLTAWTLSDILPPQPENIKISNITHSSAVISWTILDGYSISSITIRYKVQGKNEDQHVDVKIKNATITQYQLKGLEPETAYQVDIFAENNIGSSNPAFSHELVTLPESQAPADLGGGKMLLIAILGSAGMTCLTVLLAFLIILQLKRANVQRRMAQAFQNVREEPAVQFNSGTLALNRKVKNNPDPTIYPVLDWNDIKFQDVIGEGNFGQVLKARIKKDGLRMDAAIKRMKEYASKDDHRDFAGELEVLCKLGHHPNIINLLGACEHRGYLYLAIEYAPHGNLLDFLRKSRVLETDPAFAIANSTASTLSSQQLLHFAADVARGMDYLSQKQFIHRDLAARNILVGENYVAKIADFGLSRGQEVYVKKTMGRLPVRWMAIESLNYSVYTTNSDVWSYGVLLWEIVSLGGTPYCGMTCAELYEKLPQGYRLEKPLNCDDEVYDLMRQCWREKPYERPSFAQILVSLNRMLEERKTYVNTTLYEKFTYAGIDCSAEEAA
Sequence of Histone-lysine N-methyltransferase PRDM9 (Q9NQV7 whole entry): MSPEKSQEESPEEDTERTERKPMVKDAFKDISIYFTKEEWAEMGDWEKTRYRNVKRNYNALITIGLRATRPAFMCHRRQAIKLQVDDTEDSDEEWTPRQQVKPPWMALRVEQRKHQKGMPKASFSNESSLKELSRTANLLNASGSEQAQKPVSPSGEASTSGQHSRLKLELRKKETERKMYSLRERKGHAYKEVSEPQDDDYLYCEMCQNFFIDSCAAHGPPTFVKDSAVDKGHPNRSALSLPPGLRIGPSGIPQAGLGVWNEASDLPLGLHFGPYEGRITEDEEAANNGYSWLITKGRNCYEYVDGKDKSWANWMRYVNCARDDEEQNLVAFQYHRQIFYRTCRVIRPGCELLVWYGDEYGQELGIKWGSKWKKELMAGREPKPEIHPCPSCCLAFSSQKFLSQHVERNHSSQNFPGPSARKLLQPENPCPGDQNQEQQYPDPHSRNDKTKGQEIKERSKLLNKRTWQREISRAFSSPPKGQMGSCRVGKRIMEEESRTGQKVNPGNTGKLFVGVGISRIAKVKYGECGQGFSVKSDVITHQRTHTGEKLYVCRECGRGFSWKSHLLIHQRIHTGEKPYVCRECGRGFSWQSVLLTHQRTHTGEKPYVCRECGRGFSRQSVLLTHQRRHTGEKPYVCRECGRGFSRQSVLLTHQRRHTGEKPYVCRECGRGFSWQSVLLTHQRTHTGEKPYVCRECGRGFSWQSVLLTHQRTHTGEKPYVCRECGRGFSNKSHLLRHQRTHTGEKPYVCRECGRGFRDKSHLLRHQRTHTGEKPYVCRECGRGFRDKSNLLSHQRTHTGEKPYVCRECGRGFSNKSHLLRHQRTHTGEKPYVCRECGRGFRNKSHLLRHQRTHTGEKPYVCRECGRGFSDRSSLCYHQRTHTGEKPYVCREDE
Sequence of Protein arginine N-methyltransferase 6 (Q96LA8 whole entry, the tested form may be a part): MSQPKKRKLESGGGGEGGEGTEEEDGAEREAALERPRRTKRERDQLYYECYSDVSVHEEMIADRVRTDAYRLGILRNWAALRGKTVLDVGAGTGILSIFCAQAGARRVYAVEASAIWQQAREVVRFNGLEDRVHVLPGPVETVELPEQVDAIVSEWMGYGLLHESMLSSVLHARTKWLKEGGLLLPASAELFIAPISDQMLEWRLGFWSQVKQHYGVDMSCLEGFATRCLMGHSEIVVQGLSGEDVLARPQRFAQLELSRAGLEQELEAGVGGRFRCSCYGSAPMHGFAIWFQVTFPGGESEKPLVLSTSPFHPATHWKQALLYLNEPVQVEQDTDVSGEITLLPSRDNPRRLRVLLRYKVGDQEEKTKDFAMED

Cc1cc(C)c(CNC(=O)c2cc(Br)c3c(c2C)O[C@@](C)([C@H]2CC[C@H](N(C)C)CC2)O3)c(=O)[nH]1
Cmax [1]: 2150 nM
Activity [2]: 32.5%
Activity [3]: Toxic
Activity [4]: Toxic
Cmax [5]: 450 nM

Cc1cc(C)c(CNC(=O)c2cc(Cl)c3c(c2C)O[C@@](C)([C@H]2CC[C@H](N(C)C)CC2)O3)c(=O)[nH]1 [VALEMETOSTAT]
GI50 (P3HR-1): 14.3 nM
GI50 (NCI-H929): > 1000 nM
GI50 (Hs-578T): > 1000 nM
GI50 (TOV21G): 55.5 nM
GI50 (U-937): > 1000 nM
GI50 [6]: 32.5 nM
GI50 (JeKo-1): 92.2 nM
GI50 (MDA-MB-453): 124 nM
IC50 (PRMT5/MEP50 complex): 100000 nM
GI50 (THP-1): 68.1 nM
GI50 (KURAMOCHI): > 1000 nM
GI50 (RL): > 1000 nM
IC50 [7]: 100000 nM
GI50 [8]: 134 nM
IC50 [9]: 100000 nM
IC50 [10]: 100000 nM
inhibition [11]: -7.6%
IC50 [12]: > 100000 nM
GI50 [13]: 12.5 nM
GI50 (G-401): 17.7 nM
IC50 [14]: 100000 nM
GI50 (ZR-75-1): 138 nM
inhibition [15]: 6.7%
GI50 (JM1): > 1000 nM
GI50 [16]: > 1000 nM
GI50 (BT-549): > 1000 nM
GI50 (OV-90): > 1000 nM
GI50 (NCI-H661): 359 nM
GI50 [17]: > 1000 nM
GI50 (OCI-Ly7): 59.2 nM
IC50 [18]: 100000 nM
GI50 (MX1): > 1000 nM
IC50 [19]: 100000 nM
GI50 (MDA-MB-468): > 1000 nM
IC50 [20]: 100000 nM
